The results in this text go back to PubChem BioAssay AID588375 (Sanford-Burnham Center for Chemical Genomics, 2011).

Calls of active or inactive are those of the source.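 How the source made its calls: active means IC50 below 100 µM in the TR-FRET assay, unless also active in the caspase-3 counter assay; inactive means the rest, including compounds also active in caspase-3.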

For the assay, the target named is Caspase-3 (Homo sapiens) (UniProt P42574). The experiment in a line: inhibition of recombinant caspase-3 activity – biochemical, luminescence, Caspase-Glo 3/7, set 2, counter-screen for UBC13 polyubiquitin inhibitor project, SAR follow-up (AID 588375). The note with it: recombinant caspase-3, Caspase-Glo luminescence, 60 min. On the technique in general: The purpose of a counterscreen is to sort out artefacts and off-target activity.
Caspase-3 (Homo sapiens), sequence (P42574 whole entry, looked up): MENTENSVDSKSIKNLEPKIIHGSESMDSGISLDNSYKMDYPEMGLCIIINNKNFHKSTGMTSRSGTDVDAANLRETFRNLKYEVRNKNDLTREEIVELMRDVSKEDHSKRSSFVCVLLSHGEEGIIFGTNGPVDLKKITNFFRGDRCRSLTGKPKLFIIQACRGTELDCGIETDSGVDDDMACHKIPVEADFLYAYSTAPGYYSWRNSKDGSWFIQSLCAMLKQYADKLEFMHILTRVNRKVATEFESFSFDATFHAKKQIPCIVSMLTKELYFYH
`O=C(C1CCN(c2ncnc3c2nc2n3CCCCC2)CC1)N1CCN(c2ccc(F)cc2)CC1`: the IC50 (in general, the concentration that gives 50% inhibition) was > 100 µM (inactive).

For `O=C(NCCCN1CCN(c2ccc(F)cc2)CC1)C1CCCN(c2ncnc3c2nc2n3CCCCC2)C1` (configuration not stated), the IC50 is > 100 µM (inactive).

Turning to `COC(=O)c1c(NC(=O)C(=O)NCC2CCCO2)sc2c1CC(C)(C)OC2` (configuration not stated), the IC50 is > 100 µM (inactive).

Turning to `COc1ccc(OC)c(NC(=O)CN2CCC(n3cnc4cc(F)ccc43)CC2)c1`, the IC50 is > 100 µM (inactive).

As to `O=C(CN1CCC(n2cnc3cc(F)ccc32)CC1)Nc1ccccc1Br`, the IC50 is > 100 µM (inactive).

For the compound `O=C(c1ccco1)N1CCN(C(=O)C2CCN(c3ncnc4c3nc3n4CCCCC3)CC2)CC1`, the IC50 is > 100 µM (inactive).

Consider `COc1ccc(OC)c(NC(=O)CN2CCC(n3c(C)nc4cc(F)ccc43)CC2)c1`, for which the IC50 was > 100 µM (inactive).

In the case of `O=C(CN1CCC(n2c(C(F)(F)F)nc3cc(F)ccc32)CC1)Nc1ccc2c(c1)OCO2`, the IC50 is > 100 µM (inactive).

Take `CC1(C)Cc2c(sc(NC(=O)C(=O)NCC3CCCO3)c2C(N)=O)CO1` (configuration not stated): the IC50 is > 100 µM (inactive).

Consider `O=C(C1CCN(c2ncnc3c2nc2n3CCCCC2)CC1)N1CCN(Cc2ccccc2)CC1`, for which the IC50 was > 100 µM (inactive).

As to `O=C(C1CCN(c2ncnc3c2nc2n3CCCCC2)CC1)N1CCN(c2ccccn2)CC1`, the IC50 was > 100 µM (inactive).

Consider `Cc1ccc(C)c(N2CCN(CCCNC(=O)C3CCCN(c4ncnc5c4nc4n5CCCCC4)C3)CC2)c1` (configuration not stated), for which the IC50 was > 100 µM (inactive).

On to `Cc1cccc(NC(=O)CN2CCC(n3cnc4cc(F)ccc43)CC2)c1C`, for which the IC50 is > 100 µM (inactive).

For `O=C(CN1CCC(n2cnc3cc(F)ccc32)CC1)Nc1cccc(C(F)(F)F)c1`, the IC50 is > 100 µM (inactive).

In the case of `O=C(C1CCN(c2ncnc3c2nc2n3CCCCC2)CC1)N1CCN(c2ncccn2)CC1`, the IC50 was > 100 µM (inactive).

As for `Cc1nc2ccccc2n1C1CCN(CC(=O)Nc2ccccc2Oc2ccccc2)CC1`, the IC50 is > 100 µM (inactive).

With `CCOc1ccccc1NC(=O)CN1CCC(n2cnc3cc(F)ccc32)CC1`, the IC50 is > 100 µM (inactive).

Regarding `CC1(C)Cc2c(sc(NC(=O)C(=O)NCCN3CCOCC3)c2C(N)=O)CO1`, the IC50 is > 100 µM (inactive).

Consider `CC1(C)Cc2c(sc(NC(=O)C(=O)N3CCCC3)c2C(N)=O)CO1`, for which the IC50 was > 100 µM (inactive).

For `O=C(CN1CCC(n2cnc3cc(C(F)(F)F)ccc32)CC1)Nc1ccc2c(c1)OCCO2`, the IC50 was > 100 µM (inactive).

On to `Cc1nc2cc(F)ccc2n1C1CCN(CC(=O)Nc2ccccc2)CC1`, for which the IC50 is > 100 µM (inactive).

With `O=C(NCCCN1CCN(c2ccccc2)CC1)C1CCCN(c2ncnc3c2nc2n3CCCCC2)C1` (configuration not stated), the IC50 is > 100 µM (inactive).

Turning to `COc1ccccc1N1CCN(CCCNC(=O)C2CCCN(c3ncnc4c3nc3n4CCCCC3)C2)CC1` (configuration not stated), the IC50 was > 100 µM (inactive).

`Cc1cccc(N2CCN(CCCNC(=O)C3CCCN(c4ncnc5c4nc4n5CCCCC4)C3)CC2C)c1` (configuration not stated): the IC50 is > 100 µM (inactive).

On to `CCOc1ccc(NC(=O)CN2CCC(n3cnc4cc(F)ccc43)CC2)cc1`, for which the IC50 is > 100 µM (inactive).

On to `CC1(C)Cc2c(sc(NC(=O)C(=O)NCC3CCCO3)c2C(=O)O)CO1` (configuration not stated), for which the IC50 was > 100 µM (inactive).

In the case of `COc1ccc(NC(=O)CN2CCC(n3c(C)nc4cc(F)ccc43)CC2)c(OC)c1`, the IC50 is > 100 µM (inactive).
